By IC50 is commonly meant the concentration that inhibits the measured activity by half.

The target of this test is sn-1-specific diacylglycerol lipase ABHD11 (Mus musculus) (UniProt Q8K4F5). The test is described as follows: mouse ABHD11 inhibitor potency, late-stage follow-up, selectivity assay for LYPLA1 inhibitor project, biochemical, gel-based fluorescent ABPP, set 2 (AID 504507). The note with it: mouse proteome gel-based ABPP, fluorescent probe labeling.
Sequence of sn-1-specific diacylglycerol lipase ABHD11 (Mus musculus) (Q8K4F5 whole entry, looked up): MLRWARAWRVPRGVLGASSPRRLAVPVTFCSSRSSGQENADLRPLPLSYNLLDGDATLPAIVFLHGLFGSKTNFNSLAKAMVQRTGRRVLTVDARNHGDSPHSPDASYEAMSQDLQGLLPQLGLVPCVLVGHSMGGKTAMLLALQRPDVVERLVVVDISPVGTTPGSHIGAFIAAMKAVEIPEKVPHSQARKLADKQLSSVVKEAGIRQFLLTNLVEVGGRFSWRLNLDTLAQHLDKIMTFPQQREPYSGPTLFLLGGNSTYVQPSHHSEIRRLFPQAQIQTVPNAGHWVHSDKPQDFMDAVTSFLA

Regarding `CCC1CCCCN1C(=O)n1ncc(C(O)(c2ccccc2)c2ccccc2)n1` (configuration not stated), the IC50 is 15 nM.

As for `COCC1CCCCN1C(=O)n1ncc(C(O)(c2ccccc2)c2ccccc2)n1` (configuration not stated), the IC50 is 1 nM.

These data come from PubChem BioAssay AID504507 (The Scripps Research Institute Molecular Screening Center, 2011).
